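96-well plates; 48 h exposure; 5 concentrations. Endpoints by linear interpolation between flanking doses. Not reached: highest tested concentration assigned. At the GI50, growth is halved.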 The source made the active and inactive calls. Cut-off read from the data, not from the text of the source: active = GI50 up to about 1.1 µM and inactive = higher.
Assays:
Experiment in all cases: NCI tumour cell line growth inhibition, 48 h
RXF 393 = system: RXF 393
SK-OV-3 = system: SK-OV-3
RPMI-8226 = system: RPMI-8226
HOP-62 = system: HOP-62
CAKI-1 = system: CAKI-1
SR = system: SR
SK-MEL-5 = system: SK-MEL-5
EKVX = system: EKVX
KM12 = system: KM12
A549 = system: A549
NCI-H23 = system: NCI-H23
SF-539 = system: SF-539
UACC-62 = system: UACC-62
OVCAR-3 = system: OVCAR-3
K562 = system: K562
Malme-3M = system: Malme-3M
CCRF-CEM = system: CCRF-CEM
NCI/ADR-RES = system: NCI/ADR-RES
IGROV-1 = system: IGROV-1
SNB-19 = system: SNB-19

Row | SMILES | GI50 (RXF 393) | GI50 (SK-OV-3) | GI50 (RPMI-8226) | GI50 (HOP-62) | GI50 (CAKI-1) | GI50 (SR) | GI50 (SK-MEL-5) | GI50 (EKVX) | GI50 (KM12) | GI50 (A549) | GI50 (NCI-H23) | GI50 (SF-539) | GI50 (UACC-62) | GI50 (OVCAR-3) | GI50 (K562) | GI50 (Malme-3M) | GI50 (CCRF-CEM) | GI50 (NCI/ADR-RES) | GI50 (IGROV-1) | GI50 (SNB-19)
1 | CCCCCC[C@H]1C(=O)O[C@H](C)[C@H](NC(=O)c2cccc(NC=O)c2OC)C(=O)O[C@@H](C)[C@@H]1OC(=O)C(C)CC.CCCCCC[C@H]1C(=O)O[C@H](C)[C@H](NC(=O)c2cccc(NC=O)c2OC)C(=O)O[C@@H](C)[C@@H]1OC(=O)CC(C)C (stereo partly drawn) | > 100 µM (inactive) | 15.3 µM (inactive) | 8.57 µM (inactive) | > 100 µM (inactive) | 12.9 µM (inactive) | 5.82 µM (inactive) | 5.15 µM (inactive) | 7.62 µM (inactive) | 18.8 µM (inactive) | 5.9 µM (inactive) | 8.49 µM (inactive) | 29.3 µM (inactive) | 8.49 µM (inactive) | 6.71 µM (inactive) | 7.85 µM (inactive) | > 100 µM (inactive) | 6.08 µM (inactive) | 7.59 µM (inactive) | – | –
2 | O=C(c1ccco1)C1CC(c2ccc3ccccc3c2O)=NN1 (stereo not drawn) | > 100 µM (inactive) | > 100 µM (inactive) | 42.9 µM (inactive) | > 100 µM (inactive) | > 100 µM (inactive) | 20.2 µM (inactive) | 89.5 µM (inactive) | – | > 100 µM (inactive) | 47 µM (inactive) | > 100 µM (inactive) | > 100 µM (inactive) | > 100 µM (inactive) | 57.3 µM (inactive) | 38.6 µM (inactive) | > 100 µM (inactive) | 16.8 µM (inactive) | 91.4 µM (inactive) | > 100 µM (inactive) | –
3 | O=C1NN=C2C=C(c3ccc(Cl)cc3)CC(c3cccc(Cl)c3)C12 (stereo not drawn) | 14.5 µM (inactive) | 25.1 µM (inactive) | 20.5 µM (inactive) | 34.4 µM (inactive) | 34.8 µM (inactive) | 18.2 µM (inactive) | 18.5 µM (inactive) | 22.1 µM (inactive) | 28.6 µM (inactive) | 16.4 µM (inactive) | 32.2 µM (inactive) | 24.5 µM (inactive) | 15.8 µM (inactive) | 29.5 µM (inactive) | 17.1 µM (inactive) | 37.2 µM (inactive) | 23.6 µM (inactive) | 39 µM (inactive) | 19.6 µM (inactive) | 15.1 µM (inactive)
4 | C=C1C(=O)OC2/C=C(/C)C3(O)OC(C)(CC(OC(=O)C(C)C)C12)CC3OC(C)=O (stereo not drawn) | 1.47 µM (inactive) | 7.59 µM (inactive) | 4.43 µM (inactive) | 30.4 µM (inactive) | 2.48 µM (inactive) | 2.52 µM (inactive) | 6.31 µM (inactive) | 10.6 µM (inactive) | 16.2 µM (inactive) | 10.8 µM (inactive) | 3.34 µM (inactive) | 3.05 µM (inactive) | 11 µM (inactive) | 11.5 µM (inactive) | 2.96 µM (inactive) | 9.91 µM (inactive) | 2.79 µM (inactive) | 11.9 µM (inactive) | 4.5 µM (inactive) | 15.3 µM (inactive)
5 | O=[N+]([O-])c1ccc(/C(=C\c2ccccc2)Cn2ccnc2)cc1 | 31.6 µM (inactive) | 38.4 µM (inactive) | 28.9 µM (inactive) | 54.1 µM (inactive) | 3.77 µM (inactive) | 38.1 µM (inactive) | 29.9 µM (inactive) | 43.9 µM (inactive) | 33 µM (inactive) | 39.3 µM (inactive) | 26.5 µM (inactive) | 43.4 µM (inactive) | 33.5 µM (inactive) | – | 17.8 µM (inactive) | 85.5 µM (inactive) | 28 µM (inactive) | 21.1 µM (inactive) | 24.6 µM (inactive) | 57.9 µM (inactive)
6 | COc1cccc(-c2cc(=O)c3cc(N4CCCCC4)ccc3[nH]2)c1 | < 0.01 µM (active) | 0.0316 µM (active) | < 0.01 µM (active) | < 0.0145 µM (active) | < 0.01 µM (active) | < 0.01 µM (active) | < 0.01 µM (active) | – | < 0.01 µM (active) | < 0.0206 µM (active) | 0.0204 µM (active) | < 0.01 µM (active) | < 0.01 µM (active) | < 0.01 µM (active) | < 0.01 µM (active) | 13.7 µM (inactive) | < 0.01 µM (active) | 0.02 µM (active) | 0.0397 µM (active) | < 0.0117 µM (active)
7 | COc1ccc(C2NC(N)=C(C#N)C3=C2C(C)CCC3)cc1OC (stereo not drawn) | > 100 µM (inactive) | 75.3 µM (inactive) | 10.2 µM (inactive) | 15.9 µM (inactive) | > 100 µM (inactive) | 0.261 µM (active) | 24.2 µM (inactive) | 33.4 µM (inactive) | 63.5 µM (inactive) | – | > 100 µM (inactive) | 35.2 µM (inactive) | 56 µM (inactive) | 31.7 µM (inactive) | 25.6 µM (inactive) | 28.6 µM (inactive) | 14.6 µM (inactive) | 35.2 µM (inactive) | 15.5 µM (inactive) | > 100 µM (inactive)

Source: ChEMBL document CHEMBL1201862, “PubChem BioAssay data set” (2004)
